These results are taken from US6251919A, “Heterocyclic substituted aniline calcium channel blockers” (Warner-Lambert, priority 1999, dated 2001).

Each structure is given as a SMILES string.

The target of the test is T1, N-type Ca^2+ channel in IMR-32 cells (Homo sapiens, UniProt Q00975).
T1 construct: host or cells: IMR-32 (differentiated with dibutyryl cAMP and bromodeoxyuridine)
Briefly: N-type Ca2+ channel blockade in IMR-32 cells (fluorescent Ca2+ indicator Indo-1). The class given is cell-based. As to conditions: 5 μM nitrendipine present; for inhibition at 1 µM: IMR-32, 1 μM; for inhibition at 10 µM: IMR-32, 10 μM.

T1 sequence (Q00975 whole entry): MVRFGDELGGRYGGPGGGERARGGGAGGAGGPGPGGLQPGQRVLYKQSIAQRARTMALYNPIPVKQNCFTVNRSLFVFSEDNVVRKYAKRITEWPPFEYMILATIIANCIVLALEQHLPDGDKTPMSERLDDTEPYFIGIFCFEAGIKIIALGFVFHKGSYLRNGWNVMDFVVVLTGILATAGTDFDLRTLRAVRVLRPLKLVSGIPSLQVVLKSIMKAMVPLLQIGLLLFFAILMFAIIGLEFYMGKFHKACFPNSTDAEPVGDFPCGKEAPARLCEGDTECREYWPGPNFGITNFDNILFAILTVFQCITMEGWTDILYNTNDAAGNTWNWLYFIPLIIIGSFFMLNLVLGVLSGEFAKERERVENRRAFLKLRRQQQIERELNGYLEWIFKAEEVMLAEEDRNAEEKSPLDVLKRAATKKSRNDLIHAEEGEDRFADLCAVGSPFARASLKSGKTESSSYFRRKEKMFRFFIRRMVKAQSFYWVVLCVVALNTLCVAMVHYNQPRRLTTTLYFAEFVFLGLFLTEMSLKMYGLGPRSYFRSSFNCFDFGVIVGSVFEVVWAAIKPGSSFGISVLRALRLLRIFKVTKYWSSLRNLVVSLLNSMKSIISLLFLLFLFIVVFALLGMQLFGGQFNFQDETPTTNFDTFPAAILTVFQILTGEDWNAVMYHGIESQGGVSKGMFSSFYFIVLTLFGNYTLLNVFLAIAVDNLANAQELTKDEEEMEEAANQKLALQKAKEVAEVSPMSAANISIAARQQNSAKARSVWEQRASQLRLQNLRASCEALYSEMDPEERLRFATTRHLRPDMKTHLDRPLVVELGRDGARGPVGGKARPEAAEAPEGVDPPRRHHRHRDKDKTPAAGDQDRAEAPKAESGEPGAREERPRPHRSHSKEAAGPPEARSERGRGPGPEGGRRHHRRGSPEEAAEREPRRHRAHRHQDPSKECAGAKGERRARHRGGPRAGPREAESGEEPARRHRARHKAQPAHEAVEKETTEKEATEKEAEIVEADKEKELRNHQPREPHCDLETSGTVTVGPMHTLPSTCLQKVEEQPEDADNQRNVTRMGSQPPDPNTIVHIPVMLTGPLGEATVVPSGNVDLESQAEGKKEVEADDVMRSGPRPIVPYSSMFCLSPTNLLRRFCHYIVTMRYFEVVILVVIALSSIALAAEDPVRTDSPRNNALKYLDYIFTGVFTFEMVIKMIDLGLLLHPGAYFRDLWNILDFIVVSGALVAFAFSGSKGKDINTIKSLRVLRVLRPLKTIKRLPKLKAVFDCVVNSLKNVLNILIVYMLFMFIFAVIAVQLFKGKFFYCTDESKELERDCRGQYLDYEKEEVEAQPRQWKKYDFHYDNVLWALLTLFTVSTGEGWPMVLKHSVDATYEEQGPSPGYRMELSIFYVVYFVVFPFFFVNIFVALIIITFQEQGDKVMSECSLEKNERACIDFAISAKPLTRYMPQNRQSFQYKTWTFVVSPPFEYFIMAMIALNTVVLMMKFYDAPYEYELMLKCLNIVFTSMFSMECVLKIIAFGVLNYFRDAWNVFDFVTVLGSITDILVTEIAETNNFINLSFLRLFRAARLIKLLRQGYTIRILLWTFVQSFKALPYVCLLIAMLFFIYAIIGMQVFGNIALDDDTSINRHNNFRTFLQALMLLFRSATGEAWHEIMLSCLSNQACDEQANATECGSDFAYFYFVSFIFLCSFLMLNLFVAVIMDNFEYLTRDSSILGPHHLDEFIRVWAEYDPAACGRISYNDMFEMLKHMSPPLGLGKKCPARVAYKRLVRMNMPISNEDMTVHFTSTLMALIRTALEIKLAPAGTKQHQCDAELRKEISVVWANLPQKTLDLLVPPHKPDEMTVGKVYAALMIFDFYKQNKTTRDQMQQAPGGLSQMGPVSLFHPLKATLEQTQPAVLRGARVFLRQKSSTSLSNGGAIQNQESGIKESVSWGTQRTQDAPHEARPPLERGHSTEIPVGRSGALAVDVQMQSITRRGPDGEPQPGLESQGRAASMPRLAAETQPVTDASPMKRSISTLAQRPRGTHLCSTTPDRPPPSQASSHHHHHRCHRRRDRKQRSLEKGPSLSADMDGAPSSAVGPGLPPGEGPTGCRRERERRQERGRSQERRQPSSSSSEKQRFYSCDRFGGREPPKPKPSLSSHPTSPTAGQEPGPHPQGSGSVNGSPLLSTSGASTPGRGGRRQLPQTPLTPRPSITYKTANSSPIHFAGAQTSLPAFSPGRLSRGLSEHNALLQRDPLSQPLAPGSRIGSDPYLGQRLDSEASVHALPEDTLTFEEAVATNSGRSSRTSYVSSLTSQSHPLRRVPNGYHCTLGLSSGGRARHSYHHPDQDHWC

Consider `CC(C)CCN(c1ccc(OCC2CCCCC2)cc1)C1CCN(CCC(C)O)CC1` (centres unmarked) [Example 41, 4-{4-[(4-Cyclohexylmethoxy-phenyl)-(3-methyl-butyl)-amino]-piperidin-1-yl}-butan-2-ol], for which the IC50 turned out to be 1500 nM. In turn, `CC(C)=CCN(c1ccc(OCc2ccccc2)cc1)C1CCN(CCc2ccccc2)CC1` [Example 23, (4-Benzyloxy-phenyl)-(3-methyl-but-2-enyl)-(1-phenethyl-piperidin-4-yl)-amine] yielded an IC50 of 300 nM. The compound `CC(C)=CCN(c1ccc(CCC(C)(C)C)cc1)C1CCN(CCC(C)C)CC1` [Example 37, [4-(3,3-Dimethyl-butyl)-phenyl]-(3-methyl-but-2-enyl)-[1-(3-methyl-butyl)-piperidin-4-yl]-amine] yielded an inhibition at 1 µM of 31% and an inhibition at 10 µM of 92%. The corresponding values for `CC(C)=CCN(c1ccc(OCc2ccccc2)cc1)C1CCN(C(=O)C2C(C)CCCN2CCC(C)C)CC1` (centres unmarked) [Example 18, {4-[(4-Benzyloxy-phenyl)-(3-methyl-but-2-enyl)-amino]-piperidin-1-yl}-[3-methyl-1-(3-methyl-butyl)-piperidin-2-yl]-methanone] are 60% and 88%. `CC(C)=CCN(c1ccc(C(C)C)cc1)C1CCN(CCC(C)C)CC1` [Example 28, (4-Isopropyl-phenyl)-(3-methyl-but-2-enyl)-[1-(3-methyl-butyl)-piperidin-4-yl]-amine] yielded an inhibition at 1 µM of 41%.

`CC(C)=CCN(c1ccc(OC(C)C)cc1)C1CCN(Cc2ccc(F)cc2)CC1` [Example 35, [1-(4-Fluoro-benzyl)-piperidin-4-yl]-(4-isopropoxy-phenyl)-(3-methyl-but-2-enyl)-amine]: 1 µM produced 37% inhibition. Compound `CC(C)=CCN(c1ccc(OC(C)C)cc1)C1CCN(CCC(C)C)CC1` [Example 34, (4-Isopropoxy-phenyl)-(3-methyl-but-2-enyl)-[1-(3-methyl-butyl)-piperidin-4-yl]-amine] gave an inhibition at 1 µM of 23% and an inhibition at 10 µM of 76%.

As to `CC(C)=CCN(c1ccc(C(C)C)cc1)C1CCN(C(C)CO)CC1` (centres unmarked) [Example 32, 2-{4-[(4-lsopropyl-phenyl)-(3-methyl-but-2-enyl)-amino]-piperidin-1-yl}-propan-1-ol], the inhibition at 1 µM turned out to be 0% and at 10 µM the inhibition was 70%. In turn, `CC(C)=CCN(c1ccc(OCc2ccccc2)cc1)C1CCN(Cc2ccco2)CC1` [Example 21, (4-Benzyloxy-phenyl)-(1-furan-2-ylmethyl-piperidin-4-yl)-(3-methyl-but-2-enyl)-amine] came in with an IC50 of 3900 nM.

Consider `CC(C)=CCN(c1ccc(C(C)C)cc1)C1CCN(CCC(C)(C)C)CC1` [Example 26, [1-(3,3-Dimethyl-butyl)-piperidin-4-yl]-(4-isopropyl-phenyl)-(3-methyl-but-2-enyl)-amine], for which the inhibition at 1 µM turned out to be 43%. `CC(C)=CCN(c1ccc(OCc2ccccc2)cc1)C1CCN(Cc2ccc(Br)cc2)CC1` [Example 4, (4-Benzyloxy-phenyl)-[1-(4-bromo-benzyl)-piperidin4-yl]-(3-methyl-but-2-enyl)-amine] yielded an inhibition at 1 µM of 63% and an inhibition at 10 µM of 94%. The corresponding values for `CC(C)=CCN(c1ccc(C(C)C)cc1)C1CCN(Cc2ccc[nH]2)CC1` [Example 33, (4-Isopropyl-phenyl)-(3-methyl-but-2-enyl)-[1-(1H-pyrrol-2-ylmethyl)-piperidin-4-yl]-amine] are 54% and 98%. In turn, `CC(C)=CCN(c1ccc(C(C)C)cc1)C1CCN(Cc2c[nH]cn2)CC1` [Example 31, [1-(1H-Imidazol-4-ylmethyl)-piperidin-4-yl]-(4-isopropyl-phenyl)-(3-methyl-but-2-enyl)-amine] registered an inhibition at 1 µM of 7% and an inhibition at 10 µM of 62%. The matching figures for `CC(C)=CCN(c1ccc(OCc2ccccc2)cc1)C1CCN(C(=O)C2CCCCN2CCC(C)C)CC1` (centres unmarked) [Example 11, {4-[(4-Benzyloxy-phenyl)-(3-methyl-but-2-enyl)-amino]-piperidin-1-yl}-[1-(3-methyl-butyl)-piperidin-2-yl]-methanone]: 41% and 80%. `CC(C)CCN(c1ccc(OCc2ccc(F)cc2)cc1)C1CCN(CCC(C)(C)C)CC1` [Example 43, [1-(3,3-Dimethyl-butyl)-piperidin-4-yl]-[4-(4-fluoro-benzyloxy)-phenyl]-(3-methyl-butyl)-amine]: testing at 1 µM gave an inhibition of 65% and testing at 10 µM gave an inhibition of 99%. As to `CC(C)=CCN(c1cccc(OCc2ccccc2)c1)C1CCN(CCC(C)(C)C)CC1` [Example 46, (3-Benzyloxy-phenyl)-[1-(3,3-dimethyl-butyl)-piperidin-4-yl]-(3-methyl-but-2-enyl)-amine], testing at 1 µM gave an inhibition of 55% and 10 µM produced 98% inhibition. In turn, `CC(C)=CCN(c1ccc(OCc2ccccc2)cc1)C1CCN(Cc2ccc(S(C)(=O)=O)cc2)CC1` [Example 24] returned an IC50 of 1800 nM. The compound `CC(C)=CCN(c1ccc(OCc2ccccc2)cc1)C1CCN(C(=O)C2CCCC(C)N2CCC(C)C)CC1` (centres unmarked) [Example 16, {4-[(4-Benzyloxy-phenyl)-(3-methyl-but-2-enyl)-amino]-piperidin-1-yl}-[6methyl-1-(3-methyl-butyl)-piperidin-2-yl]-methanone] came in with an inhibition at 1 µM of 45% and an inhibition at 10 µM of 78%. The matching figures for `CC(C)=CCN(c1ccc(CCC(C)(C)C)cc1)C1CCN(CCC(C)(C)C)CC1` [Example 38, [4-(3,3-Dimethyl-butyl)-phenyl]-[1-(3,3-dimethyl-butyl)-piperidin-4-yl]-(3-methyl-but-2-enyl)-amine]: 38% and 83%. Take `CC(C)CCN1CCC(N(CCC(C)C)c2ccc(OCC3CCCCC3)cc2)CC1` [Example 40, (4-Cyclohexylmethoxy-phenyl)-(3-methyl-butyl)-[1-(3-methyl-butyl)-piperidin-4-yl]-amine]: the inhibition at 1 µM stood at 72%.

Compound `CC(C)=CCN(c1ccc(C(C)C)cc1)C1CCN(Cc2cccnc2)CC1` [Example 30, (4-Isopropyl-phenyl)-(3-methyl-but-2-enyl)-(1-pyridin-3-ylmethyl-piperidin-4-yl)-amine] gave an inhibition at 1 µM of 18% and an inhibition at 10 µM of 79%. For the compound `CC(C)=CCN(c1ccc(C(C)C)cc1)C1CCN(Cc2ccc(F)cc2)CC1` [Example 29, [1-(4-Fluoro-benzyl)-piperidin-4-yl]-(4-isopropyl-phenyl)-(3-methyl-but-2-enyl)-amine], at 1 µM the inhibition was 17% and the inhibition at 10 µM came to 84%. In turn, `CC(C)=CCN(c1ccc(CCC(C)(C)C)cc1)C1CCN(Cc2ccc[nH]2)CC1` [Example 47, [4-(3,3-Dimethyl-butyl)-phenyl]-(3-methyl-but-2-enyl)-[1-(1H-pyrrol-2-ylmethyl)-piperidin-4-yl]-amine] yielded an IC50 of 900 nM.

Consider `CC(C)=CCN(c1ccc(OCc2ccccc2)cc1)C1CCCN(Cc2ccc(C(C)(C)C)cc2)C1` (centres unmarked) [Example 50, (4-Benzyloxy-phenyl)-[1-(4-tert-butyl-benzyl)-piperidin-3-yl]-(3-methyl-but-2-enyl)-amine], for which the inhibition at 1 µM is 86% and the inhibition at 10 µM was 96%.

In turn, `CC(C)=CCN(c1ccc(OC(C)C)cc1)C1CCN(CCC(C)(C)C)CC1` [Example 36] yielded an inhibition at 1 µM of 26% and an inhibition at 10 µM of 74%.

Usually IC50 stands for the concentration needed to halve the response being measured. The low end stands for higher potency, the high end for lower potency. What is called inhibition is how much of the control response was suppressed. A high value points to strong suppression.
